{"source": "PubChem BioAssay AID1259411", "about": "(Chemical Carcinogenesis Research Information System (CCRIS), 2018)", "system": "rodent carcinogenicity bioassays, tumor incidence", "assay": "CCRIS carcinogenicity studies", "procedure,_shortened": "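NCI-built, expert-reviewed records of carcinogenicity and related test outcomes (mutagenicity, tumor promotion/inhibition) compiled from published and report sources, historical span 1985-2011, not updated.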", "note": "Activity calls are given as the source filed them. The rule behind the calls is not given here."}
{"smiles": "Cn1cc(OCC(O)CNC(C)(C)C)c2ccccc2c1=O", "note": "(stereo not given)", "values": [{"measurement": "carcinogen call", "setting": "Species: MOUSE, Strain/Sex: CD-1/FEMALE, Route: GAVAGE, Dose: 0, 3, 10, 30 MG/KG/D FOR 80 WK IN WATER (STUDY DURATION: 80 WK), Dose: 0, 3, 10, 30 MG/KG/D FOR 80 WK IN WATER (STUDY DURATION: 80 WK)", "value": "inactive; negative"}, {"measurement": "carcinogen call", "setting": "Species: MOUSE, Strain/Sex: CD-1/MALE, Route: GAVAGE, Dose: 0, 3, 10, 30 MG/KG/D FOR 80 WK IN WATER (STUDY DURATION: 80 WK), Dose: 0, 3, 10, 30 MG/KG/D FOR 80 WK IN WATER (STUDY DURATION: 80 WK)", "value": "inactive; negative"}]}
{"smiles": "O=[N+]([O-])c1cccc2cccnc12", "values": [{"measurement": "carcinogen call", "setting": "Species: RAT, Strain/Sex: F344/MALE,FEMALE, Route: ORAL, Dose: 0.1% IN DIET FOR 2 YR, Tumor Site: Type of Lesion: FORESTOMACH: SQUAMOUS CELL PAPILLOMA, CARCINOMA", "value": "active; positive"}]}
{"smiles": "O[C@H]1C=Cc2c(ccc3cccnc23)[C@@H]1O", "values": [{"measurement": "carcinogen call", "setting": "Species: MOUSE, Strain/Sex: CD-1/FEMALE, Route: INTRAPERITONEAL, Dose: 0, 5, 10 AND 20 µL OF A 0.05 MOLAR SOLUTION ON DAYS 1, 8 AND 15 OF LIFE RESPECTIVELY (TOTAL DOSE: 1.75 UMOL) (STUDY DURA, Dose: 0, 5, 10 AND 20 µL OF A 0.05 MOLAR SOLUTION ON DAYS 1, 8 AND 15 OF LIFE RESPECTIVELY (TOTAL DOSE: 1.75 UMOL) (STUDY DURA", "value": "inactive; negative"}, {"measurement": "carcinogen call", "setting": "Species: MOUSE, Strain/Sex: CD-1/MALE, Route: INTRAPERITONEAL, Dose: 0, 5, 10 AND 20 µL OF A 0.05 MOLAR SOLUTION ON DAYS 1, 8 AND 15 OF LIFE RESPECTIVELY (TOTAL DOSE: 1.75 UMOL) (STUDY DURA, Dose: 0, 5, 10 AND 20 µL OF A 0.05 MOLAR SOLUTION ON DAYS 1, 8 AND 15 OF LIFE RESPECTIVELY (TOTAL DOSE: 1.75 UMOL) (STUDY DURA", "value": "inactive; negative"}]}
{"smiles": "COc1ccc([N+](=O)[O-])cc1N=Nc1c(O)c(C(=O)Nc2cccc([N+](=O)[O-])c2)cc2ccccc12", "values": [{"measurement": "carcinogen call", "setting": "Species: MOUSE, Strain/Sex: B6C3F1/FEMALE, Route: ORAL, Dose: 0, 10000, 25000, 50000 PPM IN DIET FOR 720 D (STUDY DURATION: 104 WK), Dose: 0, 10000, 25000, 50000 PPM IN DIET FOR 720 D (STUDY DURATION: 104 WK)", "value": "inactive; negative"}, {"measurement": "carcinogen call", "setting": "Species: MOUSE, Strain/Sex: B6C3F1/MALE, Route: ORAL, Dose: 0, 10000, 25000, 50000 PPM IN DIET FOR 720 D (STUDY DURATION: 104 WK), Dose: 0, 10000, 25000, 50000 PPM IN DIET FOR 720 D (STUDY DURATION: 104 WK)", "value": "inactive; negative"}, {"measurement": "carcinogen call", "setting": "Species: RAT, Strain/Sex: F344/FEMALE, Route: ORAL, Dose: 0, 10000, 25000, 50000 PPM IN DIET FOR 720 D (STUDY DURATION: 105 WK), Dose: 0, 10000, 25000, 50000 PPM IN DIET FOR 720 D (STUDY DURATION: 105 WK)", "value": "inactive; negative"}, {"measurement": "carcinogen call", "setting": "Species: RAT, Strain/Sex: F344/MALE, Route: ORAL, Dose: 0, 10000, 25000, 50000 PPM IN DIET FOR 103 WK (STUDY DURATION: 105 WK), Dose: 0, 10000, 25000, 50000 PPM IN DIET FOR 103 WK (STUDY DURATION: 105 WK), Tumor Site: Type of Lesion: KIDNEY: RENAL TUBULE ADENOMA OR CARCINOMA, MULTIPLE ORGANS: MONONUCLEAR CELL LEUKEMIA", "value": "equivocal"}]}
{"smiles": "O=C1CCc2c1cc1c3c2ccc2cccc(c23)C1", "values": [{"measurement": "carcinogen call", "setting": "Species: MOUSE, Strain/Sex: T.O./MALE, FEMALE, Route: DERMAL, Dose: 0, 50 UG IN TOLUENE SOLUTION 2 D/WK FOR 39 OR 50 WK (STUDY DURATION: 2 YR), Tumor Site: Type of Lesion: SKIN: PAPILLOMA OR CARCINOMA", "value": "active; positive"}]}
{"smiles": "Cc1ccccc1[N+](=O)[O-]", "values": [{"measurement": "carcinogen call", "setting": "Species: MOUSE, Strain/Sex: B6C3F1/FEMALE, Route: ORAL, Dose: 0, 1250, 2500, 5000 PPM IN DIET FOR 105 WK (STUDY DURATION: 105 WK), Dose: 0, 1250, 2500, 5000 PPM IN DIET FOR 105 WK (STUDY DURATION: 105 WK), Tumor Site: Type of Lesion: CIRCULATORY SYSTEM: HEMANGIOSARCOMA, LARGE INTESTINE (CECUM): CARCINOMA, LIVER: HEPATOCELLULAR ADENOMA, HEPATOCELLULAR C, Tumor Site: Type of Lesion: CIRCULATORY SYSTEM: HEMANGIOSARCOMA, LARGE INTESTINE (CECUM): CARCINOMA, LIVER: HEPATOCELLULAR ADENOMA, HEPATOCELLULAR C", "value": "active; positive"}, {"measurement": "carcinogen call", "setting": "Species: MOUSE, Strain/Sex: B6C3F1/MALE, Route: ORAL, Dose: 0, 1250, 2500, 5000 PPM IN DIET FOR 105 WK (STUDY DURATION: 105 WK), Dose: 0, 1250, 2500, 5000 PPM IN DIET FOR 105 WK (STUDY DURATION: 105 WK), Tumor Site: Type of Lesion: CIRCULATORY SYSTEM: HEMANGIOSARCOMA, LARGE INTESTINE (CECUM): CARCINOMA", "value": "active; positive"}, {"measurement": "carcinogen call", "setting": "Species: RAT, Strain/Sex: F344/FEMALE, Route: ORAL, Dose: 0, 625, 1250, 2000 PPM IN DIET FOR 105 WK (STUDY DURATION: 105 WK), Dose: 0, 625, 1250, 2000 PPM IN DIET FOR 105 WK (STUDY DURATION: 105 WK), Tumor Site: Type of Lesion: SKIN (SUBCUTANEOUS): FIBROMA, FIBROMA OR FIBROSARCOMA, MAMMARY GLAND: FIBROADENOMA: LIVER: HEPATOCELLULAR ADENOMA", "value": "active; positive"}, {"measurement": "carcinogen call", "setting": "Species: RAT, Strain/Sex: F344/MALE, Route: ORAL, Dose: 0, 625, 1250, 2000 PPM IN DIET FOR 105 WK (STUDY DURATION: 105 WK), Dose: 0, 625, 1250, 2000 PPM IN DIET FOR 105 WK (STUDY DURATION: 105 WK), Tumor Site: Type of Lesion: MESOTHELIUM: MALIGNANT MESOTHELIOMA, SKIN (SUBCUTANEOUS): LIPOMA, FIBROMA, FIBROSARCOMA, FIBROMA OR FIBROSARCOMA, MAMMAR, Tumor Site: Type of Lesion: MESOTHELIUM: MALIGNANT MESOTHELIOMA, SKIN (SUBCUTANEOUS): LIPOMA, FIBROMA, FIBROSARCOMA, FIBROMA OR FIBROSARCOMA, MAMMAR", "value": "active; positive"}, {"measurement": "carcinogen call", "setting": "Species: RAT, Strain/Sex: F344/MALE, Route: ORAL, Dose: 0, 2000, 5000 PPM IN DIET FOR FIRST 3 MO (STUDY DURATION: 105 WK), Dose: 0, 2000, 5000 PPM IN DIET FOR FIRST 3 MO (STUDY DURATION: 105 WK), Tumor Site: Type of Lesion: LIVER: HEPATOCELLULAR ADENOMA OR CARCINOMA, CHOLANGIOCARCINOMA: LUNG: ALVEOLAR/BRONCHIOLAR ADENOMA, ALVEOLAR/BRONCHIOLAR", "value": "active; positive"}]}
{"smiles": "C=Cc1ccncc1", "values": [{"measurement": "carcinogen call", "setting": "Species: MOUSE, Strain/Sex: STRAIN-A/FEMALE, Route: INTRAPERITONEAL, Dose: 0, 10 UMOL IN 0.1 ML OLIVE OIL 3/WK FOR 20 DOSES (TOTAL DOSE: 200 UMOL) (STUDY DURATION: 27 WK)", "value": "inactive; negative"}]}
{"smiles": "Cc1ccc(N=CN(C)C=Nc2ccc(C)cc2C)c(C)c1", "values": [{"measurement": "carcinogen call", "setting": "Species: Mouse, Strain/Sex: B6C3F1/Female, Route: Oral (diet), Dose: 0, 25, 100, 400 ppm in feed for 104 wks, Dose: 0, 25, 100, 400 ppm in feed for 104 wks, Tumor Site: Type of Lesion: Liver: Hepatocellular adenoma/carcinoma (5/80, 1/61, 3/62, 24/56)", "value": "active; positive (at highest dose)"}, {"measurement": "carcinogen call", "setting": "Species: Mouse, Strain/Sex: B6C3F1/Male, Route: Oral (diet), Dose: 0, 25, 100, 400 ppm in feed for 104 wks, Dose: 0, 25, 100, 400 ppm in feed for 104 wks", "value": "inactive; negative"}, {"measurement": "carcinogen call", "setting": "Species: Rat, Strain/Sex: Wistar/Female, Route: Oral (diet), Dose: 0, 15, 50, 200 ppm in feed for 104 wks, Dose: 0, 15, 50, 200 ppm in feed for 104 wks", "value": "inactive; negative; purity 97.8 and 99.8%"}, {"measurement": "carcinogen call", "setting": "Species: Rat, Strain/Sex: Wistar/Male, Route: Oral (diet), Dose: 0, 15, 50, 200 ppm in feed for 104 wks, Dose: 0, 15, 50, 200 ppm in feed for 104 wks", "value": "inactive; negative; purity 97.8 and 99.8%"}]}
{"smiles": "Cc1cc(O)c(C(C)(C)C)cc1Sc1cc(C(C)(C)C)c(O)cc1C", "values": [{"measurement": "carcinogen call", "setting": "Species: MOUSE, Strain/Sex: B6C3F1/FEMALE, Route: ORAL, Dose: 0, 250, 500, 1000 PPM IN DIET FOR 2 YR (STUDY DURATION: 104 WK), Dose: 0, 250, 500, 1000 PPM IN DIET FOR 2 YR (STUDY DURATION: 104 WK)", "value": "inactive; negative"}, {"measurement": "carcinogen call", "setting": "Species: MOUSE, Strain/Sex: B6C3F1/MALE, Route: ORAL, Dose: 0, 250, 500, 1000 PPM IN DIET FOR 2 YR (STUDY DURATION: 104 WK), Dose: 0, 250, 500, 1000 PPM IN DIET FOR 2 YR (STUDY DURATION: 104 WK)", "value": "inactive; negative"}, {"measurement": "carcinogen call", "setting": "Species: RAT, Strain/Sex: F344/FEMALE, Route: ORAL, Dose: 0, 500, 1000, 2500 PPM IN DIET FOR 2 YR (STUDY DURATION: 104 WK), Dose: 0, 500, 1000, 2500 PPM IN DIET FOR 2 YR (STUDY DURATION: 104 WK)", "value": "inactive; negative"}, {"measurement": "carcinogen call", "setting": "Species: RAT, Strain/Sex: F344/MALE, Route: ORAL, Dose: 0, 500, 1000, 2500 PPM IN DIET FOR 2 YR (STUDY DURATION: 104 WK), Dose: 0, 500, 1000, 2500 PPM IN DIET FOR 2 YR (STUDY DURATION: 104 WK)", "value": "inactive; negative"}]}
{"smiles": "O=C[C@H](O)[C@@H](O)[C@H](O)CO", "values": [{"measurement": "carcinogen call", "setting": "Species: RAT, Strain/Sex: FISCHER 344/MALE, FEMALE (50/GROUP), Route: DIET, Dose: 0, 2.5, 5% IN DIET FOR 104 WKS (STUDY DURATION: 104 WKS), Dose: 0, 2.5, 5% IN DIET FOR 104 WKS (STUDY DURATION: 104 WKS)", "value": "inactive; negative"}]}
